For data set [1], the target named is T1, TSLP (Homo sapiens, UniProt Q969D9). Description: Human TSLP Surface Plasmon Resonance (SPR) binding assay. As to conditions: biotinylated human TSLP immobilized on streptavidin chip; 20° C.; steady-state or kinetic 1:1 fit; read-out: hTSLP SPR Kd. Set-up: The resulting construct spCD33-6×HN-TEV-hTSLP(29-159)-Avi; 6xHN tag with TEV site (N, cleaved yes); made in house; host or cells: Expi293F cells.

For data set [2], the target named is T1, TSLP. The data set can be described thus: Human peripheral blood mononuclear cell assay (TSLP-induced CCL17/TARC). The data set is classed as cell-based. Details: host or cells: added to human PBMCs from healthy donors. The following applies: read-out: CCL17 % Inhibition @ 10 μM, […] TSLP. A digest of the protocol: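 Healthy-donor PBMCs (3 million cells/mL, RPMI + 10% FCS) received bicycle peptide or vehicle (0.1% DMSO) premixed 30 min at rt with TSLP, then were incubated 24 h at 37 °C, 10% CO2. Supernatant CCL17/TARC quantified by MSD.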

For data set [3] the following is noted: the molecule shown is the open-chain precursor.
Where [4] appears, read: crosslinker bond, 29-membered ring, TATA/NH4HCO3, MeCN/H2O.

Read-outs that look alike come from different tables or passages of the source. *1 amine or outer side, *2 acyl side, *3 side chain or, on linkers, in order; H or OH if unused. Where a SMILES comes first, the peptide text is derived from it. Bridges are numbered along the chain shown (N, C = ends). TATA = O=C(CC[*:1])N1CN(C(=O)CC[*:2])CN(C(=O)CC[*:3])C1

T1 sequence (Q969D9 29-159): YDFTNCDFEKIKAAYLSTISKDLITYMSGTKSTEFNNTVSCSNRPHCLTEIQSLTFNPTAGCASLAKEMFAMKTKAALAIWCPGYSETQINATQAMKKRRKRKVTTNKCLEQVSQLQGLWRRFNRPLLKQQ

As to `CC(C)C[C@@H]1NC(=O)[C@H](Cc2c[nH]c3ccccc23)NC(=O)[C@@H]2CSCCC(=O)N3CN(CN(C3)C(=O)CCSC[C@@H](C(=O)N[C@@H](C)C(N)=O)NC(=O)[C@H](CO)NC1=O)C(=O)CCSC[C@H](NC(=O)[C@H](C)N)C(=O)N[C@@H](CC(=O)O)C(=O)N[C@@H](Cc1c[nH]c3ccccc13)C(=O)N[C@@H](Cc1c[nH]cn1)C(=O)N[C@@H](Cc1c[nH]c3ccccc13)C(=O)N[C@@H](CCC(=O)O)C(=O)N[C@@H](Cc1ccc(O)cc1)C(=O)N[C@@H](CC(=O)O)C(=O)N2` [Example 199, A-(SEQ ID NO: 144)-A], the Kd at TSLP [1] was 81 nM. The inhibition at 10 µM at TSLP [2] was -3%.
Turning to `CC(C)C[C@@H]1NC(=O)[C@H](Cc2c[nH]c3ccccc23)NC(=O)[C@@H]2CSCCC(=O)N3CN(CN(C3)C(=O)CCSC[C@H](NC(=O)[C@H](CC(=O)O)NC(=O)[C@H](Cc3c[nH]cn3)NC(=O)[C@@H](N)CC(=O)O)C(=O)N[C@@H]([C@@H](C)O)C(=O)N[C@@H](Cc3c[nH]c4ccccc34)C(=O)N[C@@H](CC(N)=O)C(=O)N[C@@H](Cc3c[nH]c4ccccc34)C(=O)N[C@@H](CCC(=O)O)C(=O)N[C@@H](Cc3ccc(O)cc3)C(=O)N[C@@H](CC(=O)O)C(=O)N2)C(=O)CCSC[C@@H](C(=O)N[C@@H](C)C(N)=O)NC(=O)[C@H](CC(=O)O)NC1=O` [Example 200, DHD-(SEQ ID NO: 145)-A] (H-DHDCTWNWEYDCWLDCA-NH2; linker 4-12-16 via TATA; N-terminus and C-terminus assumed), the dissociation constant Kd on TSLP [1] came to 68 nM. Besides, at TSLP [2], the inhibition at 10 µM is -42%.
“Ac-Cys-Gln-X2-Leu-Glu-Asp-Cys-Trp-X1-Gly-Phe(4-F)-Cys-NH2 (X1=L-2-amino-azidobutanoic acid, X2=L-2-aminohept-6-ynoic acid; three Cys bridged by TATA)” came in with a ring closure, yield after HPLC in data set [3] (triazole bond, 27-membered ring, CuSO4/Na ascorbate, H2O/tBuOH) of 1%.
In data set [3] (setting [4]), “Ac-Cys-MeAla-Trp(1-Me)-Ala(tBu)-Gln-Asp-Cys-Trp(1-Me)-ADMA-Gly-Phe(4-F)-Cys-NH2?” registered a ring closure, yield after HPLC of 19%.
For the compound “H-Cys-MeAla-Nal1-Ala(tBu)-Gln-Asp-Cys-Trp(1-Me)-ADMA-Gly-Phe(4-F)-Cys-dAla-NH2?”, the ring closure, yield after HPLC in data set [3] (crosslinker bond, 29-membered ring, TATA/NH4HCO3, MeCN/H2O, 0.93 mM) turned out to be 17%.
As to “N3CH2C(O)NH(CH2CH2O)3CH2CH2(CO)-Cys-MeAla-Trp(1-Me)-Ala(tBu)-Gln-Asp-Cys-Trp(1-Me)-ADMA-Gly-Phe(4-F)-Cys-NH2”, the ring closure, yield after HPLC in data set [3] (setting [4]) is 12%.
For “n-octanoyl-Cys-MeAla-Trp(1-Me)-Ala(tBu)-Gln-Asp-Cys-Trp(1-Me)-ADMA-Gly-Phe(4-F)-Cys-NH2”, the ring closure, yield after HPLC in data set [3] (setting [4]) stood at 14%.

These data come from patent US11866518B2, “Bicyclic peptide ligands specific for TSLP” (BicycleTx Limited, priority 2020, dated 2024).
